What was measured:
Ccl2 mRNA = Ccl2 mRNA in Hepa1-6 cells exposed to LPS or TNFα; type: cell-based, mouse; conditions: 10 μM, 12 hours
Protocol: Next, whether or not Compound No. 2 whose effect in vivo was confirmed has an effect to antagonize the activation of an inflammatory signal was examined. Hepa1-6 cells were exposed to Compound No. 2 at a dose of 10 μM simultaneously with exposure to lipopolysaccharide (LPS) or TNFα which activates NF-κB for which the G0S2 protein acts as a regulator. As shown in FIGS. 10A and 10B, the cells were recovered 12 hours after the exposure and the expression level of Ccl2 mRNA was measured. […] In addition, 25 μg of LPS was administered to the tail vein of a mouse to thereby construct a hepatitis model. 30 minutes after the administration of LPS, Compound No. 2 (5 mg/kg) was administered to the tail vein of the mouse, and the liver was sampled at 6 hours.

G0S2 mRNA = G0S2 mRNA expression in Hepa1-6 cells (qRT-PCR); type: cell-based, mouse; conditions: 48 hours
Protocol: The effect of the compound on the expression level of mRNA of the G0S2 gene was evaluated for the three compounds extracted so far. 24 hours after seeding with Hepa1-6 cells, the cells were exposed to hit compounds at 10 μM and sampling and total RNA extraction were carried out 24 hours later. Subsequently, changes in the expression level of mRNA of the G0S2 gene were measured by a qRT-PCR method.
Hepa1-6 cells were exposed to 10 μM of each of seven derivatives of Compound No. 2 (Examples 2 and 4 to 9) and an effect of the derivative compounds on the expression level of G0S2 mRNA after 24 hours was evaluated.
Therefore, Hepa1-6 cells were exposed to Compound No. 2 and the compound of Example 2 (NS-3-011) in the range of 0.5 to 5 μM and an effect of the compounds on the expression level of endogenous G0S2 mRNA after 48 hours was evaluated.
Subsequently, Hepa1-6 cells were transfected with siRNA against Hsd17b4 or control siRNA in the presence (10 μM) or absence (indicated as “DMSO” in FIG. 22B) of Compound No. 2. Subsequently, each cell was recovered after 48 hours and total RNA was extracted. Subsequently, the expression level of the G0S2 gene was quantified by real-time PCR.

[1] = system: G0S2 transcriptional activity regulatory region; assay: Luciferase assay with G0S2 transcriptional activity regulatory regions of each length in NIH3T3 cells; type: cell-based, mouse; conditions: NIH3T3 stable cells, 10 μM, 24 hours
Protocol: Subsequently, these expression vectors were transfected into NIH3T3 cells, which are mouse fibroblast cells, to construct cells stably expressing luciferase.
Subsequently, Compound No. 2 or DMSO (control) at a final concentration of 10 μM was added to the medium of each cell. Subsequently, the cells were recovered after 24 hours and the luciferase activity was measured.

[2] = system: G0S2 promoter (−2030→+10); assay: G0S2 promoter (−2030→+10) luciferase assay in Hepa1-6 cells; type: cell-based, mouse; conditions: Hepa1-6 reporter cells, 10 μM, 24 hours
Protocol: To get closer to the environment in the liver, a cell stably expressing an expression cassette in which a luciferase gene was ligated to the downstream side of the G0S2 promoter (−2030→+10) was constructed in the Hepa1-6 cell, which is a mouse hepatoma-derived cell. Using this cell, an effect of the candidate compounds on the luciferase activity was evaluated in the same manner as in the primary screening described above.

G0S2 protein [3] = assay: LPS-administered mice: G0S2 protein in liver (Western blotting); type: in vivo; conditions: LPS 10 μg/mouse tail vein; 5 mg/kg subcutaneous 1 hour after LPS; liver 5 hours later; vs LPS group
Protocol: LPS (10 μg/mouse) was administered to ICR male mice by tail vein injection to prepare an LPS-administered group. In addition, a mouse to which physiological saline was administered instead of LPS was prepared and used as a control group. Subsequently, the LPS-administered group was divided into two groups, in which 1 hour after the administration of LPS, Compound No. 2 was subcutaneously administered at a dose of 5 mg/kg to the dorsal region of mice of one group which was then served as an LPS+No. 2-administered group. Subsequently, 5 hours after the administration of Compound No. 2, mice of each group were sacrificed and the liver was harvested.
Subsequently, the expression level of the G0S2 protein in the liver of mice of each group obtained was quantified by Western blotting. FIG. 11A is a graph showing the quantitative results of the G0S2 protein.

G0S2 protein [4] = assay: G0S2 protein in liver of normal mice; type: in vivo, mouse; conditions: normal ICR male mice, 15 mg/kg subcutaneous, 4 hours and 6 hours after administration
STAT5 protein = assay: Nuclear abundance of STAT5 protein in NIH3T3 cells (Western blotting); type: cell-based, mouse; conditions: NIH3T3 cells, 2.5, 5 and 10 μM, 24 hours, vs control
Protocol: Compound No. 2 or DMSO (control) at final concentrations of 2.5, 5 and 10 μM was added to the medium of NIH3T3 cells, which are mouse fibroblasts. Subsequently, the cells were recovered after 24 hours, the nuclear protein was prepared, and the abundance of the STAT5 protein was measured by Western blotting.

## CCCCCCNC(=N)NCc1ccccc1 [Compound No. 2]
Ccl2 mRNA; LPS 100 ng/mL
  expression of Ccl2 mRNA increased by LPS: significantly inhibited
Ccl2 mRNA; TNFα 200 ng/mL
  expression of Ccl2 mRNA increased by TNFα: significantly inhibited
G0S2 mRNA; 5 μM, vs DMSO
  G0S2 mRNA expression level: significant decrease
G0S2 mRNA; 10 μM
  effect of lowering the expression level of the G0S2 gene after transfection with siRNA against Hsd17b4: disappeared
G0S2 mRNA; 10 μM, control siRNA
  expression level of the G0S2 gene: significantly decreased
[1]
  effect of inhibiting the expression of luciferase when the STAT5/6 binding region disappears: decreased
[2]
  G0S2 promoter (−2030→+10) activity (relative value): less than ½
G0S2 protein [3]
  expression of G0S2 protein in the liver: significantly inhibited
G0S2 protein [4]
  expression level of G0S2 protein in the liver: significant decrease
STAT5 protein
  nuclear abundance of the STAT5 protein: decreased in a dose-dependent manner

Source: US20190359560A1, “ANTI-INFLAMMATORY DRUG AND USES THEREOF” (KYUSHU UNIVERSITY, NATIONAL UNIVERSITY CORPORATION, priority 2015, published 2019)
